{
  "source": "paper PMC3880013",
  "about": "“Toward an Understanding of Agonist Binding to Human Orexin-1 and Orexin-2 Receptors with G-Protein-Coupled Receptor Modeling and Site-Directed Mutagenesis” (Biochemistry, 2013)",
  "origin": "cited, not measured here",
  "key": {"hOX1 V130A": {"system": "hOX1 V130A", "details": "hOX1 V130A (3.36) relative to wild type, [Ca2+]i response, ref 37 Malherbe et al., cited from earlier work"}, "hOX1 F219A": {"system": "hOX1 F219A", "details": "hOX1 F219A (5.42) relative to wild type, [Ca2+]i response, ref 37 Malherbe et al., cited from earlier work", "text": "Other mutations had no major effect on efficacy. || We also explored the role of the conserved F^5.42. […] In the case of OX1, F^5.42 interacts with H26 of OxA that, based on the SDM experiments, has an only moderate impact on potency (see Figure 6A). This is in contrast to OX2 in which F^5.42 interacts with key residue I30 (see Figure 6B). Mutation of I30 of OxA to alanine complet ..."}, "hOX1 D203A": {"system": "hOX1 D203A", "details": "hOX1 D203A (45.51) relative to wild type, [Ca2+]i response, ref 37 Malherbe et al., cited from earlier work", "text": "(§1) Other mutations had no major effect on efficacy."}, "hOX1 W206A": {"system": "hOX1 W206A", "details": "cited from earlier work; for ratio EC50(mut)/EC50(WT): hOX1 W206A (45.54) relative to wild type, [Ca2+]i response, ref 37 Malherbe et al.", "text": "as §1"}, "hOX1 Y215A": {"system": "hOX1 Y215A", "details": "hOX1 Y215A (5.38) relative to wild type, [Ca2+]i response, ref 37 Malherbe et al., cited from earlier work", "text": "as §1"}, "hOX1 Y224A": {"system": "hOX1 Y224A", "details": "hOX1 Y224A (5.47) relative to wild type, [Ca2+]i response, ref 37 Malherbe et al., cited from earlier work", "text": "as §1"}, "hOX1 Y311A": {"system": "hOX1 Y311A", "details": "cited from earlier work", "text": "as §1"}, "hOX1 A127T": {"system": "hOX1 A127T", "details": "hOX1 A127T (3.33) relative to wild type; [Ca2+]i response; ref 37 Malherbe et al.; cited from earlier work", "text": "(§2) Table 1 Comparison of the Effects of Different Mutations in hOX1 and hOX2 on the Binding Potencies of Orexin-A and Orexin-B ^a | column: hOX1 / ratio ^b of Orexin-A"}, "hOX1 Q126A": {"system": "hOX1 Q126A", "details": "hOX1 Q126A (3.32) relative to wild type; [Ca2+]i response; ref 37 Malherbe et al.; cited from earlier work", "text": "as §2"}, "hOX1 Y348A": {"system": "hOX1 Y348A", "details": "hOX1 Y348A (7.43) relative to wild type; [Ca2+]i response; ref 37 Malherbe et al.; cited from earlier work", "text": "as §2"}, "hOX2 T111A": {"system": "hOX2 T111A", "parameters": "method as in earlier work", "details": "hOX2 T111A (2.61) relative to wild type, [Ca2+]i response, ref 37 Malherbe et al., cited from earlier work"}, "hOX2 Q134A": {"system": "hOX2 Q134A", "parameters": "method as in earlier work", "details": "hOX2 Q134A (3.32) relative to wild type; [Ca2+]i response; ref 37 Malherbe et al.; cited from earlier work"}, "hOX2 F228A": {"system": "hOX2 F228A", "details": "hOX2 F228A (5.43) relative to wild type; [Ca2+]i response; ref 37 Malherbe et al.; cited from earlier work", "text": "(§3) Table 1 Comparison of the Effects of Different Mutations in hOX1 and hOX2 on the Binding Potencies of Orexin-A and Orexin-B ^a | column: hOX2 / ratio ^b of Orexin-A"}, "hOX2 S139A": {"system": "hOX2 S139A", "details": "hOX2 S139A (3.37) relative to wild type; [Ca2+]i response; ref 37 Malherbe et al.; cited from earlier work", "text": "as §3"}, "hOX2 T135A": {"system": "hOX2 T135A", "details": "hOX2 T135A (3.33) relative to wild type; [Ca2+]i response; ref 37 Malherbe et al.; cited from earlier work", "text": "as §3"}, "hOX2 V138A": {"system": "hOX2 V138A", "details": "hOX2 V138A (3.36) relative to wild type; [Ca2+]i response; ref 37 Malherbe et al.; cited from earlier work", "text": "as §3"}, "hOX2 Y317F": {"system": "hOX2 Y317F", "details": "hOX2 Y317F (6.48) relative to wild type; [Ca2+]i response; ref 37 Malherbe et al.; cited from earlier work", "text": "as §3"}, "hOX2 Y354A": {"system": "hOX2 Y354A", "details": "hOX2 Y354A (7.43) relative to wild type; [Ca2+]i response; ref 37 Malherbe et al.; cited from earlier work", "text": "as §3"}, "hOX2 Y232A": {"system": "hOX2 Y232A", "parameters": "method as in 2 sources, one per row (each row's own in cited_ref): ref 37 Malherbe et al. ||| ref 37 = [37]; PMID 20404073; doi:10.1124/mol.110.064584; Malherbe P.; Roche O.; Marcuz A.; Kratzeisen C.; Wettstein J. G.; Bissantz C. ( 2010 ) Mapping the Binding Pocket of Dual Antagonist Almorexant to Human Orexin 1 and Orexin 2 Receptors: Compariso", "details": "cited from earlier work; for ratio EC50(mut)/EC50(WT): hOX2 Y232A (5.47) relative to wild type, [Ca2+]i response, ref 37 Malherbe et al."}, "hOX2 Y317A": {"system": "hOX2 Y317A", "details": "cited from earlier work; for ratio EC50(mut)/EC50(WT): hOX2 Y317A (6.48) relative to wild type, [Ca2+]i response, ref 37 Malherbe et al.", "text": "D211^45.51 is in the proximity of L19. L19 and L20 form hydrophobic interactions with W214^45.54 and H350^7.39, respectively. […] In the case of OX2, Y223^5.38 forms an interaction with H26 of OxA. F227^5.42 forms a ..."}},
  "note": "Read-outs that look alike come from different tables or passages of the source. Marks after values point to notes of the source that are not given here. Where no end group is shown, it is not given here.",
  "data": [
    {"substance": "Orexin-A (QPLPDCCRQKTCSCRLYELLHGAGNHAAGILTL; ends and bridges not checked; cysteine pairing not given here; UniProt O43612 34-66, looked up) [hypothalamic neuropeptide, 33 amino acids, two intramolecular disulfide bonds C6-C12 and C7-C14; natural OX1/OX2 agonist]", "values": [
      {"measurement": "ratio EC50(mut)/EC50(WT)", "setting": "hOX1 V130A", "result": "30.6 ^c fold"},
      {"measurement": "ratio EC50(mut)/EC50(WT)", "setting": "hOX1 V130A; listed as OxA", "result": 30.6, "unit": "fold"},
      {"measurement": "ratio EC50(mut)/EC50(WT)", "setting": "hOX1 F219A", "result": "139.6 ^c fold"},
      {"measurement": "ratio EC50(mut)/EC50(WT)", "setting": "hOX1 F219A; listed as OxA", "result": 139.6, "unit": "fold"},
      {"measurement": "ratio EC50(mut)/EC50(WT)", "setting": "hOX1 D203A", "result": "408.2 ^c fold"},
      {"measurement": "ratio EC50(mut)/EC50(WT)", "setting": "hOX1 D203A; listed as OxA", "result": 408.2, "unit": "fold"},
      {"measurement": "ratio EC50(mut)/EC50(WT)", "setting": "hOX1 W206A", "result": "417.8 ^c fold"},
      {"measurement": "ratio EC50(mut)/EC50(WT)", "setting": "hOX1 W206A; listed as OxA", "result": 417.8, "unit": "fold"},
      {"measurement": "decrease in the maximal efficacy (Emax)", "setting": "hOX1 W206A; hOX1 W206A compared with WT", "result": 45.0, "unit": "%"},
      {"measurement": "ratio EC50(mut)/EC50(WT)", "setting": "hOX1 Y215A", "result": "407.8 ^c fold"},
      {"measurement": "ratio EC50(mut)/EC50(WT)", "setting": "hOX1 Y215A; listed as OxA", "result": 407.8, "unit": "fold"},
      {"measurement": "ratio EC50(mut)/EC50(WT)", "setting": "hOX1 Y224A", "result": "84.4 ^c fold"},
      {"measurement": "ratio EC50(mut)/EC50(WT)", "setting": "hOX1 Y224A; listed as OxA", "result": 84.4, "unit": "fold"},
      {"measurement": "ratio EC50(mut)/EC50(WT)", "setting": "hOX1 Y311A; hOX1 Y311A (6.48) relative to wild type, [Ca2+]i response, ref 37 Malherbe et al.", "result": 163.9, "unit": "fold"},
      {"measurement": "decrease in the maximal efficacy (Emax)", "setting": "hOX1 Y311A; hOX1 Y311A compared with WT", "result": 53.4, "unit": "%"},
      {"measurement": "ratio EC50(mut)/EC50(WT)", "setting": "hOX1 A127T", "result": "1.8 ^c fold"},
      {"measurement": "ratio EC50(mut)/EC50(WT)", "setting": "hOX1 Q126A", "result": "2.4 ^c fold"},
      {"measurement": "ratio EC50(mut)/EC50(WT)", "setting": "hOX1 Y348A", "result": "8.7 ^c fold"},
      {"measurement": "ratio EC50(mut)/EC50(WT)", "setting": "hOX2 T111A", "result": "243.5 ^c fold"},
      {"measurement": "ratio EC50(mut)/EC50(WT)", "setting": "hOX2 T111A; listed as OxA", "result": 243.5, "unit": "fold"},
      {"measurement": "ratio EC50(mut)/EC50(WT)", "setting": "hOX2 Q134A", "result": 22.3, "unit": "fold"},
      {"measurement": "ratio EC50(mut)/EC50(WT)", "setting": "hOX2 F228A", "result": "3.0 ^c fold"},
      {"measurement": "ratio EC50(mut)/EC50(WT)", "setting": "hOX2 S139A", "result": "2.5 ^c fold"},
      {"measurement": "ratio EC50(mut)/EC50(WT)", "setting": "hOX2 T135A", "result": "0.8 ^c fold"},
      {"measurement": "ratio EC50(mut)/EC50(WT)", "setting": "hOX2 V138A", "result": "4.4 ^c fold"},
      {"measurement": "ratio EC50(mut)/EC50(WT)", "setting": "hOX2 Y317F", "result": "1.3 ^c fold"},
      {"measurement": "ratio EC50(mut)/EC50(WT)", "setting": "hOX2 Y354A", "result": "3.7 ^c fold"},
      {"measurement": "ratio EC50(mut)/EC50(WT)", "setting": "hOX2 Y232A", "result": "28.4 ^c fold"},
      {"measurement": "ratio EC50(mut)/EC50(WT)", "setting": "hOX2 Y232A; listed as OxA", "result": 28.4, "unit": "fold"},
      {"measurement": "Emax (decreased)", "setting": "hOX2 Y232A; hOX2 Y232A compared with WT", "result": 44.9, "unit": "%"},
      {"measurement": "ratio EC50(mut)/EC50(WT)", "setting": "hOX2 Y317A", "result": "17.7 ^c fold"},
      {"measurement": "ratio EC50(mut)/EC50(WT)", "setting": "hOX2 Y317A; listed as OxA", "result": 17.7, "unit": "fold"},
      {"measurement": "relative Emax (decreases to)", "setting": "hOX2 Y317A; hOX2 Y317A compared with WT", "result": 49.6, "unit": "%"}
    ]}
  ]
}
